{
  "source": "patent US20060128792A1",
  "about": "“Deguelin as a chemopreventive agent for lung cancer” (priority 2002, published 2006)",
  "type_in_all_cases": "cell-based",
  "key": {"PI3K": {"tested_on": "PI3K", "test": "PI3K assay (lipid kinase assay on immunoprecipitate of treated cells)", "conditions": "1799 cells, 10^−7 M deguelin, 1 day", "procedure": "PI3K Assay. 1799 cells cultured in KSFM containing 10^−7 M deguelin for different time periods were lysed in lysis buffer. PI3K was immunoprecipitated from 500 μg of cellular protein using pan-anti-p85 antibody (Upstate Biotechnology, Waltham, Mass.), which coprecipitates the p110 catalytic subunit of PI3K, and subsequent lipid kinase assay was performed as described previously (Sibilia et al., 2000). Briefly, the mixture was incubated with gentle rocking at 4° C. for 12 h, 10 mg of protein A-sepharose (Amersham Pharmacia Biotech) were added, and the incubation was continued for another 2 h. The immunoprecipitates were washed, in tandem, three times with lysis buffer, twice with 0.1 M Tris/HCl, pH 7.5, containing 0.5 M LiCl, and 10 μM sodium vanadate, and twice with 10 mM Tris/HCl, pH 7.5, containing 100 MM NaCl, 10 μM sodium vanadate, and 1 mM EDTA. Adequate amounts of the washed antibody conjugates, in 10 μl, were added to 80 μl of 30 mM Hepes, pH 7.5, containing 125 μM ATP, 10 μCi of [α-^32P] ATP, and 6.25 mM MgCl2, and the reaction was initiated by adding 20 μg of bovine brain extract (Type 1; Sigma) suspended in 10 μl of 30 mM Hepes, pH 7.5. […] The autoradiograms were scanned by a Photodyne image system and quantified using the NIH Image program (version 1.59)."}, "[1]": {"tested_on": "pAkt (Ser473) and pGSK-3β (Ser9) in squamous HBE cells", "test": "Western blot of pAkt (Ser473) and pGSK-3β (Ser9)", "conditions": "time-dependent", "procedure": "(§1) Immunoblotting. Whole cell lysates were prepared in lysis buffer (50 mM N-[2-[…]]-piperazine-N′-[2-ethanesulfonic acid] [HEPES; pH 7.5], 150 mM NaCl, 1.5 mM MgCl2, ImM EDTA, 0.2 mM EGTA, 1% NP40, 10% glycerol, 1 mM dithiothreitol (DTT), 1 mM phenylmethylsulfonyl fluoride, 20 mM sodium fluoride, 5 mM sodium orthovanadate, 10 μg/ml aprotinin, 10 μg/ml leupeptin, 2 μg/ml pepstatin, and 1 mM benzamidine) as described previously (Lee et al., 2002). Equivalent protein concentrations were resolved in sodium dodecyl sulfate-polyacrylamide gels and transferred to a nitrocellulose membrane. After the blocking of transblotted membrane in Tris-buffered saline (TBS) containing 0.05% Tween 20 (TBST) and 5% low fat milk, themembrane was incubated with primary antibody at the appropriate dilution in TBS-5% low-fat milk at 4° C. for 16 h and washed with TBST. The immunoblots were visualized using the ECL kit (Amersham, Inc., Arlington Heights, III) according to the manufacturer's directions. Rabbit polyclonal antibodies against human pAkt (Ser473), Akt, and pGSK-3β (Ser9), and mouse monoclonal antibody against human anti-pMAPK (Thr202/Tyr204) were purchased from Cell Signalinng Technology (Beverly, Mass.). […]\nEffects of Deguelin on Squamous Differentiated HBE Cells. […] It was then determined whether deguelin inhibits the activation of PI3K/Akt pathway in squamous HBE cells. […]"}, "[2]": {"tested_on": "pAkt (Ser473) and pGSK-3β (Ser9) in 1799 cells", "test": "Western blot of pAkt (Ser473) and pGSK-3β (Ser9)", "procedure": "as §1"}, "ERK1/2 (MAPK)": {"tested_on": "ERK1/2 (MAPK)", "test": "ERK 1/2 kinase assay (MBP phosphorylation, immunoprecipitate of treated cells)", "conditions": "1799 cells, 10^−7 M deguelin", "procedure": "ERK 1/2 Kinase assay. ERK1/2 activity was determined by analyzing MAPK-induced phosphorylation of myelin basic protein (MBP) as previously described (Lee et al., 2002). Briefly, 1799 cells cultured in KSFM containing 10^−7 M deguelin for different time periods were lysed in lysis buffer, and ERK-1 and -2 were immunoprecipitated from 100 μg of cell extracts with antibodies (1 μg) that recognize ERK-1 and -2 (Santa Cruz Biotechnology) by rotation at 4° C. for overnight. The total volume was adjusted to 0.5 ml with lysis buffer. Protein A sepharose beads (20 μl) (Amersham Pharmacia Biotech) were added and incubated at 4° C. for 2 hour. The beads were washed three times with lysis buffer and once with kinase buffer (20 MM Hepes [pH 7.5], 20 mM β-glycerol phosphate, 10 mM PNPP, 10 mM MgCl2, 1 mM dithiothreitol, 50 mM sodium vanadate). Kinase assays were performed by incubating the beads with 30 μl kinase buffer to which […], 5 μCi [γ^32P] ATP (2000 cpm/pmol), and 2 μg MBP (Cell Signaling Technology) were added. The kinase reaction was performed at 30° C. for 20 min. The samples were suspended in Laemmli buffer, boiled for 5 min, and the samples were analyzed by SDS-PAGE. The gel was dried and autoradiographed."}},
  "data": [
    {"compound": "COc1cc2c(cc1OC)[C@@H]1C(=O)c3ccc4c(c3O[C@@H]1CO2)C=CC(C)(C)O4", "note": "[Deguelin]", "values": [
      {"measurement": "PI3K activity (lipid kinase assay)", "setting": "PI3K", "value": "decreased"},
      {"measurement": "elevated levels of pAkt (Ser473) and pGSK-3β (Ser9)", "setting": "[1]", "value": "down-regulated"},
      {"measurement": "pAkt level, time course", "setting": "[2]; 10^−7 M deguelin", "value": "reduced after 7 h of treatment and was virtually undetectable after 14 h"},
      {"measurement": "levels of pAkt (Ser473) and pGSK-3β (Ser9)", "setting": "[2]; time-dependent, Akt, GSK-3α/β and β-Actin not affected", "value": "decreased"},
      {"measurement": "MAPK activity", "setting": "ERK1/2 (MAPK)", "value": "not affected"}
    ]}
  ]
}
